The values that follow come from patent publication US9037228B2, “Method and system for detecting electrophysiological changes in pre-cancerous and cancerous tissue” (Epi-Sci, LLC, priority 2002, dated 2015).

Like-named read-outs stand apart in the source and are kept apart here.

Assay [1] deals with human prostatic epithelial cells. Conditions: cells grown in presence of DHT. An excerpt:
FIG. 13 represent measurements of cell membrane potential (ψ) in human prostatic epithelial cells under different growth conditions. A Voltage-sensitive FRET (fluorescent energy transfer) probe was used for potentiometric ratio measurements. It has two fluorescent components: CC2-DMPE (Coumarin) and DISBAC2(3) (Oxonol). The oxonol distributes itself on opposite sides of the cell membrane in a Nernstian manner according to the ψ. The voltage sensitive distribution of oxonol is transduced through a ratiometric fluorescence signal via the coumarin which is bound to the outside surface of the cell membrane thereby amplifying the fluorescence. Measurements were made using a fluorescence microscope and a digital imaging system. The ratio measurements are calibrated using Gramicidin D to depolarize the cell membrane and then varying the external K^+-concentration. The calibrated cell membrane potential in mV is depicted on the y-axis.
The filled bars indicates the ψ of exponentially growing prostatic epithelial cells before they reach confluence, whereas the open bars depict the ψ of the cells once they reach confluence and cell growth slows.

Assay [2] concerns apical K+ channels of human colonic mucosa. Conditions: normal colon, 30 mM mucosal TEA after elevated serosal K+, 0.1 mM amiloride present.
Protocol: The potassium permeability of the apical membrane of human colonic mucosa (P^Ka) was determined in surgical specimens of controls and grossly normal-appearing mucosa obtained 10-30 cm proximal to colorectal adenocarcinomas. The mucosa was mounted in Ussing chambers and the basolateral membrane resistance and voltage were nullified by elevating the K^+ in the serosal bathing solution. The apical sodium (Na^+) conductance was blocked with 0.1 mM amiloride. This protocol reduces the equivalent circuit model of the epithelium to an apical membrane conductance and electromotive force in parallel with the paracellular pathway as has been verified by microelectrode studies. […] The serosal bath was remained constant at 125 mM [K].
The next assay concerns colonic mucosa. The assay can be described thus: TEP response of colonic mucosa to topically applied amiloride. An excerpt: The measured TEP decreases in response to a topically applied amiloride (a sodium channel blocker) in normal colonic mucosa. This response is reduced by approximately 50% in pre-cancerous mucosa or by greater than 75% in cancerous mucosa. In addition, the loss in sodium conductance results in an increase of impedance of the surface epithelium. This ion transport alteration may be measured by determining the change in TEP as well as the basal impedance. In abnormal pre-cancerous or cancerous tissue, the TEP is lower, the response of the TEP to amiloride is less, and the increase in impedance (observed in normal colon in response to amiloride) is less in abnormal pre-cancerous or cancerous tissue. Similar pharmacological agents may be introduced that alter the effect of chloride or potassium ion transport, which affect abnormal pre-cancerous or cancerous tissue in a different manner than in normal colon tissue.

Assay [3] has as its system benign and malignant human breast epithelial cells. The assay can be described thus: Transepithelial potential (TEP) of breast epithelial monolayers in modified Ussing chambers, voltage clamp. The class given is cell-based. The method, then:
It should be noted that the instantaneous response, illustrated in FIG. 10, is greater in malignant epithelia, whereas the chronic or sustained exposure to estradiol results in a lower increase in TEP (transepithelial electropotential) in malignant cells. Concurrent measurement of surface electropotential and impedance allow the more accurate diagnosis of cancer. […] The cells were grown as monolayers on Millipore filters and grew to confluence in 7 to 10 days. The epithelia were then mounted in modified Ussing chambers and the TEP was measured using a voltage clamp. Increasing doses of estradiol between 0 and 0.8 μM were added (x-axis). The transepithelial potential was measured after each addition and the TEP was measured (y-axis). The different dose response is apparent for benign and malignant epithelia. Malignant epithelia have a lower TEP but undergo an instantaneous increase in TEP of approximately 9 mV (becomes more electronegative and reaches a level of <6 mV) after exposure to only 0.1 μM estradiol and then depolarize to approximately −2 mV with increasing doses of estradiol up to about 0.5 μM.

The subject of assay [4] is human breast epithelial cells. The assay can be described thus: Cell membrane potential (ψ) in human breast epithelial cells, potentiometric fluorescent probe. In kind it is cell-based. The method, then:
Measurements were made using a potentiometric fluorescent probe, and ratiometric measurements, which are calibrated using valinomycin and K^+-gradients. ψs were measured in the presence (closed circles) and absence (open circles) of estradiol (the active metabolite of estrogen). Each symbol is the mean measurement. The upper error bar is the standard error of the mean, and the lower error bar is the 95% confidence level for the observations. The addition of estrogen to cultured breast epithelial cells results in an instantaneous increase in ψ (data not shown) as well as transepithelial potential see FIG. 10. Transepithelial potential (VT) of an epithelium is the sum of the apical (luminal) cell membrane potential (VA) and the basolateral (abluminal) cell membrane potential (VBL). Therefore VT=VA+VBL(changes in VA and VBL will therefore alter VT or transepithelial potential). […] Malignant and transformed cells have a ψ of between −31 and −35 mV in the absence of estradiol and approximately […] when estradiol is present in the culture medium.

Another assay has as its system breast tissue. The assay can be described thus: Electrophysiological (TEP) response of breast tissue to estradiol given into the duct or sublingually. In kind it is in vivo. Conditions: into the duct or sublingual 17-β-estradiol (4 mg). The method, then: In one method of present invention, estradiol is introduced directly into the duct or systematically following sublingual administration of 17-β-estradiol (4 mg). This agent produces a rapid response, which peaks at approximately 20 minutes. The electrophysiological response depends, in part, on the stage of the patient's menstrual cycle, as well as the condition of the breast tissue. Specifically, in normal breast tissue, a rise in TEP will occur during the follicular (or early) phase. In pre-cancerous or cancerous tissue, this response is abrogated.

Where [5] appears, read: malignant epithelia, after exposure to 0.1 μM estradiol.

Regarding `C[C@]12CCC(=O)C[C@@H]1CC[C@@H]1[C@@H]2CC[C@]2(C)[C@@H](O)CC[C@@H]12` [DHT, dihydroxytestosterone], the figures for the “effect on cell membrane potential ψ” value in assay [1] (exponential growth) and in assay [1] (on reaching confluence) were “slightly hyperpolarized” and “depolarize”, respectively.

As for `CC[N+](CC)(CC)CC` [TEA, tetraethyl ammonium], the “effect on Isc” value in assay [2] was “abrupt increase in Isc”.

Turning to `N=C(N)NC(=O)c1nc(Cl)c(N)nc1N` [amiloride], the “reduction of the TEP response to amiloride” value is given as “greater than 75%” in the assay with colonic mucosa (cancerous mucosa versus normal) and “approximately 50%” in the assay with colonic mucosa (pre-cancerous mucosa versus normal). In addition, in the assay on colonic mucosa (normal colonic mucosa, topically applied), the “effect on measured TEP” value is “decreases”.

With `C[C@]12CC[C@@H]3c4ccc(O)cc4CC[C@H]3[C@@H]1CC[C@@H]2O` [estradiol, 17-β-estradiol], the “estradiol dose at which TEP response peaks” value in assay [3] (benign epithelia, then remains persistently elevated) is approximately 0.3 µM. Also, in assay [3] (setting [5]), the TEP level reached is on record as less than 6 mV and the “instantaneous increase in TEP” value is reported as “approximately 9 mV”. Besides, the TEP after depolarization result in assay [3] (malignant epithelia, increasing doses of estradiol up to about 0.5 μM) is reported as “approximately −2 mV”. Moreover, the “cell membrane potential ψ” value in assay [4] (benign breast epithelial cells, estradiol added to the culture media (about −50 mV without)) is listed as approximately −70 mV. Moreover, the “cell membrane potential ψ” value in assay [4] (malignant and transformed cells, estradiol present in culture medium (−31 to −35 mV without)) is listed as “approximately 50 mV”. Also, the “time of peak electrophysiological response” value in the assay with breast tissue was “approximately 20 minutes”.
